Test results from patent US12103939B2, “Solid pharmaceutical gold-based composition” (KING FAHD UNIVERSITY OF PETROLEUM AND MINERALS, priority 2019, dated 2024).
Several values for one entry are separate records, joined by “and”; a condition that tells them apart may be missing. Equal values may be shown once.

Experiments:
Assay in all cases: Cytotoxicity assay (MTT, 72 h)
Type in all cases: cell-based, human
[1] = system: cisplatin- and doxorubicin-resistant A2780cis clone
Protocol: (§1) R-ME-180 and A2780cis cells were maintained in 1 μM cisplatin. Adipose-derived stromal cells were maintained in MSCGM BulletKit medium (Lonza). All cell lines were cultured at 37° C. in a 5% CO2, fully humidified atmosphere
(§2) Cell lines were seeded in 96-well flat-bottomed microplates in 100 μL culture medium at the following densities: DU145, PC3 and MCF-7 cells (2.5×10^3 cells/well); A2780, A2780cis, ME-180, R-ME-180 and A549 cells (4.0×10^3 cells/well); and MG-63 cells (2.0×10^3 cells/well). Cells were allowed to adhere for 24 h. Then the medium was replaced with fresh medium alone or with one of the gold(III) complexes at increasing concentrations from 0 to 100 μM. The reference drugs cisplatin (0-100 μM) and doxorubicin (0-1 μM) were included as positive controls for growth inhibition. After 72 h, cell viability was assayed using the MTT assay.
(§3) See Chou T. C.; Talalay P. Quantitative analysis of dose-effect relationships: the combined effects of multiple drugs or enzyme inhibitors. […] 22, 27-55, incorporated herein by reference in its entirety. IC50 values were reported as mean (SD). For drug-resistance cell lines, fold resistance (FR) was calculated as the ratio of the IC50 of the resistant cell line to the IC50 of the parental cell line.

[2] = system: PC3 prostate cancer cell line
Protocol: as §1, §2, §3

[3] = system: DU145 prostate cancer cell line; details: DU145, MTT after 72 h, mean (SD); read-out: Half-maximal inhibitory concentration (IC50)
Protocol: as §1, §2, §3

[4] = system: MG-63 osteosarcoma cell line; details: MG63, MTT after 72 h, mean (SD); read-out: Half-maximal inhibitory concentration (IC50)
Protocol: as §1, §2, §3

[5] = system: MCF-7 breast cancer cell line; details: MCF-7, MTT after 72 h, mean (SD); read-out: Half-maximal inhibitory concentration (IC50)
Protocol: as §1, §2, §3

[6] = system: cisplatin-resistant R-ME-180 clone
Protocol: as §1, §2, §3

[7] = system: A549 lung cancer cell line; details: A549, MTT after 72 h, mean (SD); read-out: Half-maximal inhibitory concentration (IC50)
Protocol: as §1, §2, §3

C[N+](C)=C1[S][Au-]2([S]1)[n+]1ccc[n+]3c1-c1[n+]2ccc[n+]1[Au-]31[S]C(=[N+](C)C)[S]1.[Cl-].[Cl-].[Cl-].[Cl-] [C6, [Au2(BPM)(DMDTC)2]Cl4]
IC50 ([1]; A2780cis, MTT after 72 h, mean (SD)): 300 nM | FR (A2780cis/A2780), fold resistance ([1]; IC50 A2780cis / IC50 A2780): 1.2 | IC25 ([2]; PC3): 310 nM | IC75 ([2]; PC3): 1850 nM | IC50 ([2]; PC3, MTT after 72 h, mean (SD), read-out: Half-maximal inhibitory concentration (IC50)): 600 nM and 620 nM | IC50 [3]: 700 nM | IC50 [4]: 800 nM | IC50 [5]: 500 nM | FR (R-ME-180/ME-180), fold resistance ([6]; IC50 R-ME-180 / IC50 ME-180): 0.9 | IC50 ([6]; R-ME-180, MTT after 72 h, mean (SD)): 4900 nM | IC50 [7]: 800 nM
